Data taken from patent US20130017600A1, “ISOLATION AND/OR PRESERVATION OF DENDRITIC CELLS FOR PROSTATE CANCER IMMUNOTHERAPY” (NORTHWEST BIOTHERAPEUTICS, INC., priority 1995, published 2013).

Assays:
[1] = tested on: T cells (PBMC) obtained from prostate cancer patients; assay: T cell proliferation assay (3H-TdR incorporation) with PSMA peptide alone; assay type: cell-based, human
Experimental: One hundred thousand previously frozen T cells (designated “PBMC”) obtained from a prostate cancer patient were cultured in the presence or absence of 20
PSMA peptide in complete medium containing 10% heat-inactivated human serum and 1 unit/ml IL2. One μCi/well ^3H-Thymidine was added on day 6 and cultures were harvested 18 hours later. ^3H-TdR incorporation was counted in a liquid scintillation counter. Each experiment was done in 4 replicates.
One hundred thousand T cells, i.e. PBMC obtained from HLA-A2(+) or HLA-A2(−) prostate cancer patients were cultured in the presence or absence (i.e. “medium control”) of 20 μg PSM-P2 peptide for five (5) days in a humidified, 37° C., 5% CO2 incubator. On day 6, 1 μCi ^3H-Thymidine was added to each well. After another 24 h incubation, cells were harvested and the ^3H-TdR incorporated was counted in a liquid scintillation counter. Each experiment was done in triplicate. Results are presented in FIG. 10 as average cpm and standard error of the mean.

[2] = tested on: T cells proliferated as a result of the PSMA peptide; assay: Flow cytometric analysis (CD4/CD8) of T cells proliferated as a result of the PSMA peptide; assay type: cell-based, human; details: expanded 5 days with 2 μM peptide and 1 unit/ml IL2; FIG. 9
Experimental: The T cells proliferated as a result of the PSMA peptide were expanded in culture for 5 days, in complete medium containing 2 μM PSMA peptide and 1 unit/ml Il2 for 5 days prior to harvest. One million cells were incubated for 30 minutes on ice with anti-CD4, anti-CD8 antibodies or medium alone, followed by another 30 minute incubation with fluorescein isothiocyanate labelled-2° antibody. Fluorescence-bound was analyzed in a FACScan (Becton Dickinson, San Jose, Calif.) flow cytometer as described above. The percent CD4+ and CD8+ cells were calculated. Results are illustrated in FIG. 9.

[3] = tested on: late stage prostate cancer patients; assay: Phase 1 clinical trial: T cell proliferation pre- and post-infusion (stimulation ratio); assay type: in vivo, human; details: 7 days after first infusion; all patients of the group; FIG. 11
Experimental: A phase 1 clinical trial has been established using five treatment groups of late stage prostate cancer patients. The groups were treated as follows: Group I, received peptide PSM-P1 having amino acid sequence LLHETDSAV (SEQ. ID. NO 1) only at 0.2, 2.0 and 20.0 μg; Group II, peptide PSM-P2 having amino acid sequence ALFDIESKV (SEQ. ID. NO. 2) only at 0.2, 2.0 and 20.0 μg; Group III, 1×10^6 (#3-4) or 5×10^6 (#1, 2) autologous dendritic cells only; Group IV, up to 2×10^7 autologous dendritic cells loaded with PSM-P1 (SEQ. ID. NO. 1); and Group V, up to 2×10^7 autologous DC's loaded with PSM-P2 (SEQ. ID. NO. 2). All treatments were delivered by infusion. Patients were monitored 7 days post-infusion and their immune function was analyzed by assessing T cell proliferation pre- and post-infusion using ^3H-TdR incorporation as described above in Section 9.

[4] = tested on: previously frozen T cells (PBMC) of a prostate cancer patient; assay: T cell proliferation assay with previously cryopreserved autologous dendritic cells and purified PSMA; assay type: cell-based, human; details: previously cryopreserved DC's plus 5 μl/well purified PSMA; vs antigen alone or DC's alone; FIG. 6
Experimental: Dendritic cells were isolated from PBMC of a prostate cancer patient as described above in Section 6 and cultured, as described above, in Section 6, for 7 days in the presence of 500 units/ml GM-CSF and IL-4.
On day 7, the isolated DC's were harvested and cryopreserved using 90% fetal calf serum and 10% dimethylsulfoxide. The cryopreserved DC's were stored frozen for a period of time, thawed in a 37° C. water bath and transferred to a 15 ml polypropylene tube and centrifuged at 1200 rpm for 5 min. The thawed DC's were then resuspended in medium containing 10% heat-inactivated human serum and counted.
One hundred thousand previously frozen T cells obtained from peripheral blood of the same prostate cancer patient (PBMC) were cultured in the presence or absence of 10^4 DC's together with 5 μl/well purified PSMA (see Section 6.1.4 above) in a total volume of 200 μl medium containing 10% heat-inactivated human serum and 1 unit/ml IL-2. One μCi/well ^3H-Thymidine was added on day 6 and cultures were harvested 18 hours later. ^3H-TdR incorporation was counted in a liquid scintillation counter. Each experiment was done in 4 replicates. The average cpm and standard deviation are shown in the graph.

[5] = tested on: previously cryopreserved autologous T cells (PBMC) of a prostate cancer patient; assay: T cell proliferation assay with extended life span (EBV-transformed) dendritic cells; assay type: cell-based, human; details: antigen presented by extended life span DC's; TT 500 ng/ml or LNCaP lysate equivalent of 10^4 cells/ml; FIG. 7

Substance: ALFDIESKV [PSM-P2, peptide corresponding to amino acid residues 711-719 of PSMA]
- T cell proliferation (3H-TdR incorporation), HLA-A2(−) T cells ([1]; 20 μg peptide, 5 days, FIG. 10): less dramatic enhanced T cell proliferation
- T cell proliferation (3H-TdR incorporation), HLA-A2(+) T cells ([1]; 20 μg peptide, 5 days, vs medium control, FIG. 10): greatly enhanced cell proliferation

Substance: LLHETDSAV [PSM-P1, peptide corresponding to amino acid residues 4-12 of PSMA]
- CTL's share of the T cells stimulated by the peptide [2]: about 41%
- increase in T cell proliferation post- vs pre-infusion [3]: did not demonstrate any increase in T cell proliferation
- T cell proliferation (3H-TdR incorporation) ([1]; PBMC of a prostate cancer patient with peptide vs absence of peptide, FIG. 8): greatly enhanced T cell proliferation

Substance: PSMA: purified prostate specific membrane antigen, immunoprecipitated from human semen with monoclonal antibody 7E11-C5
- 3HTdR incorporation (T cell proliferation) [4]: highly significant increase
- 3HTdR incorporation (T cell proliferation) [5]: significantly increased
